Data on 2 compounds can be found in PMC4867239 (Journal of biotechnology, 2016).

Ends that are not written are not given here.

For data set [1], the system named is S. aureus. In words: microbe, parasite or virus in culture. To be noted: Staphylococcus aureus, read-out: active at (MIC assay).
A short description of data set [2]: Plasma PK in mice, 14 days of daily IV dosing. The class given is in vivo, Mouse (CD-1). To be noted: for AUC(0-t) / Cmax / MRT / Tmax: CD-1, mouse, plasma, iv.
A short description of data set [3]: Plasma PK in cynomolgus monkeys, 14 days of daily IV dosing. The data set is classed as in vivo, Cynomolgus macaques. The following applies: for AUC(0-t) / Cmax / MRT: cynomolgus monkey, plasma, iv.
A short description of data set [4]: Phase 1 SAD/MAD plasma PK in healthy volunteers. The data set is classed as in vivo, Human. The following applies: humans.
A short description of data set [5]: Quantitative whole body autoradiography with [14C]SGX94. The class given is in vivo, male CD-1 mice.

With `CC[C@H]1OC(=O)[C@H](C)[C@@H](O[C@H]2C[C@@](C)(OC)[C@@H](O)[C@H](C)O2)[C@H](C)[C@@H](O[C@@H]2O[C@H](C)C[C@H](N(C)C)[C@H]2O)[C@](C)(O)C[C@@H](C)C(=O)[C@H](C)[C@@H](O)[C@]1(C)O` [erythromycin], the MIC in data set [1] was below 3.12 mg/L.

For orientation: AUC(0-t) means the area under the concentration-time curve up to a stated or last time point. A low value points to less exposure. The term Cmax denotes the highest concentration seen after dosing. A word on the MRT: it is a mean duration of stay, worked out from the concentration-time curve. Broadly, the Tmax is the time from dosing to the highest level. RIVPA-NH2 [SGX94, dusquetide]: the AUC(0-t) was found to be 1.7 µg·h/mL in data set [2] (female, 20 mg/kg); 6.52 µg·h/mL in data set [2] (female, 60 mg/kg); 10.4 µg·h/mL in data set [2] (female, 90 mg/kg); 4.5 µg·h/mL in data set [2] (male, 20 mg/kg); 9.29 µg·h/mL in data set [2] (male, 60 mg/kg); 17.4 µg·h/mL in data set [2] (male, 90 mg/kg). For the same compound, the area under the curve AUC(0-t) in data set [3] (female, 20 mg/kg) turned out to be 2.41 ± 1.23 µg·h/mL; in data set [3] (female, 80 mg/kg), 3.36 ± 4.71 µg·h/mL; in data set [3] (female, 160 mg/kg), 36.3 ± 26.4 µg·h/mL; in data set [3] (male, 20 mg/kg), 1.33 ± 0.438 µg·h/mL; in data set [3] (male, 80 mg/kg), 19.4 ± 6.91 µg·h/mL; in data set [3] (male, 160 mg/kg) it was 46 ± 9.57 µg·h/mL. Besides, the Cmax was determined as 8.08 µg/mL in data set [2] (female, 20 mg/kg); 27.1 µg/mL in data set [2] (female, 60 mg/kg); 45.8 µg/mL in data set [2] (female, 90 mg/kg); 23 µg/mL in data set [2] (male, 20 mg/kg); 41.2 µg/mL in data set [2] (male, 60 mg/kg); 72.2 µg/mL in data set [2] (male, 90 mg/kg). The peak concentration (Cmax) in data set [3] (female, 20 mg/kg) stood at 12.4 ± 6.41 µg/mL; in data set [3] (female, 80 mg/kg) it was 16.9 ± 24.8 µg/mL; in data set [3] (female, 160 mg/kg) it was 179 ± 132 µg/mL; in data set [3] (male, 20 mg/kg) it was 6.65 ± 2.52 µg/mL; in data set [3] (male, 80 mg/kg) it was 85.9 ± 25.8 µg/mL; in data set [3] (male, 160 mg/kg) it was 206 ± 33.4 µg/mL. The MRT was 2 min in data set [2] (female, 20 mg/kg); 6.5 min in data set [2] (female, 60 mg/kg); 1.8 min in data set [2] (female, 90 mg/kg); 2.3 min in data set [2] (male, 20 mg/kg); 1.8 min in data set [2] (male, 60 mg/kg); 1.6 min in data set [2] (male, 90 mg/kg). Besides, the MRT in data set [3] (female, 20 mg/kg) is 6.6 min; in data set [3] (female, 80 mg/kg) it was 55 min; in data set [3] (female, 160 mg/kg), 6.6 min; in data set [3] (male, 20 mg/kg) it was 7.8 min; in data set [3] (male, 80 mg/kg), 7.8 min; in data set [3] (male, 160 mg/kg) it was 7.2 min. For the same compound, the Tmax in data set [2] (male, 20 mg/kg) is 3 min; in data set [2] (male, 60 mg/kg) it was 3 min; in data set [2] (male, 90 mg/kg) it was 3 min. For the same compound, the PK half-life entry in data set [2] (mouse), in data set [3] (non-human primate) and in data set [4] was “very short (minutes)” throughout. The “major analyte in blood” value in data set [5] (20 mg/kg [14C]SGX94 IV, by 5 min post-dose) is listed as “a metabolite of SGX94”. Besides, in data set [5] (QWBA, 20 mg/kg [14C]SGX94 IV bolus, male CD-1 mice), the “penetration into CNS, bone, white adipose and eye lens” value is on record as “low penetration”.
